How the values were obtained:
cells = assay: Cytotoxicity / cell metabolic activity on exposure to N16; assay type: cell-based
Source text: We investigated the specificity of the inhibitory effect. F15 and N16 impaired Tsg101-co-localization with Gag on the plasma membrane (c.f, FIG. 19) and reduced release of the VLPs assembled by Gag (c.f, FIG. 15). […] Cell metabolic activity was not affected after exposure to N16 for 24 hr; it decreased by less than 10% after exposure to N16 for 48 hr (not shown). Tsg101 localization to the midbody of dividing cells requires its recruitment to that location by centrosomal protein of 55k (CEP55) which binds a site in the Tsg101 Pro-rich domain (aa 154-166) (Lee, H. H., et al. (2008)). Finding this function unaffected at a concentration inhibitory to virus budding is consistent with the lack of any indication that cell division was reduced in the presence of N16. The lack of effect on this function also supports the specificity of N16 targeting as limited to functions of the Tsg101 UEV domain. EGF ligand-binding to EGFR on the cell surface signals receptor internalization, ubiquitination, and sequential ESCRT 0-, I-, II- and III-mediated transport to degradative compartments, ultimately lowering the EGFR steady-state level (Tomas, A., et al. (2014)). This trafficking requires the engagement of the P(T/S)AP-binding pocket in the Tsg101 UEV domain with the PSAP motif in hepatocyte growth factor-regulated tyrosine kinase substrate (Hrs), a component of ESCRT-0 (Lu, Q., et al. (2003)). The down-regulation function remained unimpaired at concentrations well above 50 JAM.

HIV-1 NL4-3 = assay: Spreading infection of Jurkat cells infected with NL4-3, p24 capture ELISA; assay type: cell-based
Experimental: FIG. 16A-B. N16 inhibition of HIV-1 transmission in a spreading infection in Jurkat cells. A) Schematic diagram summarizing experimental protocol. Jurkat cells (triplicate samples of 5×10^5/well) were incubated for 2 hr with HIV-1 NL4-3 in treatment media containing 50 μM N16 or control vehicle (DMSO). At the end of this period, unbound virus was removed by centrifugation and the cells washed once, resuspended in fresh media and returned to the 37° C. incubator. For the next 15 days, tissue culture media was removed daily by centrifugation and saved for virus measurement by p24 capture ELISA and cells were replenished with fresh control or N16 treatment media. B) ELISA readings. In control media (containing DMSO), virus replication peaked at day 11; in the presence of N16, production peaked at 13 days. […] Cells were monitoring periodically for viability by Trypan Blue assay. To test their ability to produce virus after this sustained exposure, at day 15 the N16-treated cells were washed, fresh media without inhibitor was added and the cells were incubated 4 days longer (to day 19). The supernatant was collected, the cells were washed again and then incubated for another 4 days in media with inhibitor, adding fresh inhibitor daily. The final supernatant was collected on day 23. […] Thus, the cells maintained the ability to produce virus and the virus in the population at 15 days was essentially as susceptible to N16 as the initial virus population used to infect the Jurkat cells. Number of independent trials: n=2.
To investigate whether the ability to bind the UEV domain could affect Tsg101's function during HIV's budding process, viral particle production was tested (FIG. 15). […] Addition of N16 at 24 hr post-transfection had little effect on budding even at higher concentrations (FIG. 15A, bottom). […] After 15 days, virus production was reduced by 15-fold. Cell viability was maintained under these conditions of sustained drug exposure as indicated by trypan blue viability assay every 3rd day. […] Following the re-addition of N16 to the media, virus titer at this point was reduced 50-fold 4 days indicating maintenance of drug susceptibility.

Plasma level in humans = assay type: in vivo, human; details: equivalent of the plasma level
Source text: Targeting of the Gag-Tsg101 interaction for inhibition of HIV budding has been an active field over the last fifteen years, mostly focusing on interference with PTAP binding (Tavassoli, A. et al. (2008); Chen, H., et al. (2010); Kim, S. E. et al. (2011); Lu, J. et al. (2014)). Theoretically, a synthetic peptide that mimics the PTAP motif could compete for the PTAP binding pocket of Tsg101 in cells. […]; Liu, F. et al. (2008)). Although high-resolution structures for the highest affinity complexes have not yet been elucidated, docking studies indicate that these PTAP inhibitors bind to the hydrophobic surface of Tsg101 around residue T56 (Kim, S. E. et al. (2011)). […]. […] Indeed, the dose of N16 provided is 40 milligrams. Seven microgram/ml is achieved in human plasma (Hunt, R. H. et al. (2005)), a level that is equivalent to a 20 micromolar concentration of the drug. The lowest concentration that we achieved in tissue culture assays when N16 was provided under the optimal conditions described in the text (c.f FIG. 15) was 25-50 micromolar. The current availability of the F15/N16 compounds in diverse long-acting slow-release formulations is another feature adaptable to further refined development of the F15/N16 compounds that could address issues pertaining to drug regimen adherence. […]

EGFR = assay: EGF-stimulated EGFR degradation, Western analysis; assay type: cell-based; details: concentrations well above 50 JAM
Experimental: FIG. 20A-C. N16 inhibition is virus-specific. A) N16 IC50 for Hela and 293T cells. […] Values were calculated by measuring metabolic activity (WST-1 Assay, Roche Applied Science) after cells were grown for 24 hr in N16. Data points represent the mean of 2 assays, 3 time points each for each cell line. […] Values in the absence or presence of N16 (50 uM) were 12% and 13%, respectively). C) N16 effect on EGF-stimulated EFGR degradation. Cells maintained for 24 hr in media containing DMSO alone or DMSO and N16 were stimulated with EGF ligand for a 90 min period and then assessed for EGFR steady-state level by Western analysis. EGFR levels for unstimulated and stimulated sample pairs are shown. A) n=2; B) n=2; C) n=2.
We investigated the specificity of the inhibitory effect. F15 and N16 impaired Tsg101-co-localization with Gag on the plasma membrane (c.f, FIG. 19) and reduced release of the VLPs assembled by Gag (c.f, FIG. 15). […] Cell metabolic activity was not affected after exposure to N16 for 24 hr; it decreased by less than 10% after exposure to N16 for 48 hr (not shown). Tsg101 localization to the midbody of dividing cells requires its recruitment to that location by centrosomal protein of 55k (CEP55) which binds a site in the Tsg101 Pro-rich domain (aa 154-166) (Lee, H. H., et al. (2008)). […]

**Q.** Which cytotoxicity (cells; 50 μM, 24 hr exposure) does the source give for `COc1ccc2[nH]c([S+]([O-])Cc3ncc(C)c(OC)c3C)nc2n1` (stereo not shown) [N16, tenatoprazole] here?
**A.** The cytotoxicity was “did not induce detectable cytotoxicity”.

**Q.** What about the cell metabolic activity (cells; exposure to N16 for 24 hr) of the same compound?
**A.** Its cell metabolic activity is “not affected”.

**Q.** And the “decrease of cell metabolic activity” value (cells; exposure to N16 for 48 hr, not shown)?
**A.** The value was “less than 10%”.

**Q.** What about the “reduction of virus production” value (HIV-1 NL4-3; 50 μM N16, Jurkat cells, peak values / after 15 days) of the same compound?
**A.** The value was 15 fold.

**Q.** And the “time of peak virus production” value (HIV-1 NL4-3; 50 μM N16, control peaked at day 11)?
**A.** The value was 13 days.

**Q.** What about the “resurgence of virus when N16 removed” value (HIV-1 NL4-3; media without inhibitor, 4 days (day 15 to 19)) of the same compound?
**A.** The value was 10 fold.

**Q.** What about the “reduction of virus on re-addition of N16” value (HIV-1 NL4-3; re-addition of N16, 4 days (to day 23)) of the same compound?
**A.** Its value is 50 fold.

**Q.** And the “cell viability, trypan blue assay” value (HIV-1 NL4-3; sustained drug exposure, every 3rd day)?
**A.** The value was “maintained”.

**Q.** What about the “plasma level, equivalent concentration” value (Plasma level in humans) of the same compound?
**A.** The value was 20 µM.

**Q.** And the EGFR down-regulation function (EGFR)?
**A.** The EGFR down-regulation function was “unimpaired”.
